Assay results taken from patent publication US9695155B2, “Herbicidal substituted pyrimidinyloxy benzene compounds” (E. I. DU PONT DE NEMOURS AND COMPANY, priority 2013, dated 2017).

Assays:
rice = assay: Test C flooded paddy test; format: in vivo, Oryza sativa; details: Flood, scale 0 to 100 (0 no effect, 100 complete control), 13 to 15 days
Summary of the method: (§1)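 Ratings were visual and made relative to untreated controls after 13 to 15 greenhouse days.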

ducksalad = assay: Test C flooded paddy test; format: in vivo, Heteranthera limosa; details: Flood, scale 0 to 100 (0 no effect, 100 complete control), 13 to 15 days
Summary of the method: as §1

wild poinsettia = assay: Test E postemergence; format: in vivo, Euphorbia heterophylla
From the text: (§2) Seeds of plant species selected from corn (Zea mays), soybean (Glycine max), velvetleaf (Abutilon theophrasti), lambsquarters (Chenopodium album), wild poinsettia (Euphorbia heterophylla), palmer pigweed (Amaranthus palmeri), waterhemp (common waterhemp, Amaranthus rudis), surinam grass (Brachiaria decumbens), large (Lg) crabgrass (Digitaria sanguinalis), Brazilian crabgrass (Digitaria horizontalis), fall panicum (Panicum dichotomiflorum), giant foxtail (Setaria faberii), green foxtail (Setaria viridis), goosegrass (Eleusine indica), johnsongrass (Sorghum halepense), ragweed (common ragweed, Ambrosia elatior), barnyardgrass (Echinochloa crus-galli), sandbur (southern sandbur, Cenchrus echinatus), arrowleaf sida (Sida rhombifolia), Italian ryegrass (Lolium multiflorum), dayflower (Virginia (VA) dayflower, Commelina virginica), field bindweed (Convolvulus arvensis), morningglory (Ipomoea coccinea), nightshade (eastern black nightshade, Solanum ptycanthum), kochia (Kochia scoparia), yellow nutsedge (Cyperus esculentus), cocklebur (common cocklebur, Xanthium strumarium), smartweed (ladysthumb smartweed, and hairy beggarticks (Bidens pilosa), were planted into a silt loam soil and treated preemergence with test chemicals formulated in a non-phytotoxic solvent mixture which included a surfactant.
(§3) At the same time, plants from these crop and weed species and also horseweed (Canada horseweed, Conyza canadensis), waterhemp_RES1, (ALS & Triazine resistant common waterhemp, Amaranthus rudis), and waterhemp_RES2, (ALS & HPPD resistant common waterhemp, Amaranthus rudis) were planted in pots containing Redi-Earth® planting medium (Scotts Company, 14111 Scottslawn Road, Marysville, Ohio 43041) comprising spaghnum peat moss, vermiculite, wetting agent and starter nutrients were treated with postemergence applications of test chemicals formulated in the same manner. Plants ranged in height from 2 to 18 cm for postemergence treatments (1- to 4-leaf stage). Treated plants and controls were maintained in a greenhouse for 14 to 21 days, after which time all species were compared to controls and visually evaluated. Plant response ratings, summarized in Table E, are based on a scale of 0 to 100 where 0 is no effect and 100 is complete control. A dash (-) response means no test result.

palmer pigweed = assay: Test E postemergence; format: in vivo, Amaranthus palmeri
Summary of the method: (§4)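 Compound in a non-phytotoxic solvent mixture with surfactant was applied preemergence to seeds in silt loam soil, or postemergence to plants 2 to 18 cm tall grown in peat-based potting medium. Plants were kept in a greenhouse for 14 to 21 days, then rated visually against untreated controls on a 0 (no effect) to 100 (complete control) scale.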

sandbur = assay: Test E postemergence; format: in vivo, Cenchrus echinatus
From the text: as §2, §3

Italian ryegrass = assay: Test E postemergence; format: in vivo, Lolium multiflorum
Summary of the method: as §4

field bindweed = assay: Test E postemergence; format: in vivo, Convolvulus arvensis
From the text: as §2, §3

[1] = Postemergence, 31 g ai/ha, scale 0 to 100
[2] = Postemergence, 62 g ai/ha, scale 0 to 100
[3] = Postemergence, 125 g ai/ha, scale 0 to 100
[4] = postemergence, 8 g ai/ha, scale 0 to 100, 0 no effect, 100 complete control
[5] = postemergence, 16 g ai/ha, scale 0 to 100, 0 no effect, 100 complete control

SMILES: FC(F)(F)c1cnn(-c2c(Br)cccc2Oc2ncc(Cl)cn2)c1 [Compound 191]
- Plant response rating, Rice (rice; 31 g ai/ha): 0
- Plant response rating, Rice (rice; 62 g ai/ha): 0
- Plant response rating, Rice (rice; 125 g ai/ha): 0
- Plant response rating, Rice (rice; 250 g ai/ha): 0
- Plant response rating, Ducksalad (ducksalad; 31 g ai/ha): 30
- Plant response rating, Ducksalad (ducksalad; 62 g ai/ha): 50
- Plant response rating, Ducksalad (ducksalad; 125 g ai/ha): 75
- Plant response rating, Ducksalad (ducksalad; 250 g ai/ha): 80
- Plant response rating, Poinsettia, Wild (wild poinsettia; [1]): 50
- Plant response rating, Poinsettia, Wild (wild poinsettia; [2]): 50
- Plant response rating, Poinsettia, Wild (wild poinsettia; [3]): 60
- Plant response rating, Poinsettia, Wild (wild poinsettia; [4]): 20
- Plant response rating, Poinsettia, Wild (wild poinsettia; [5]): 40
- Plant response rating, Pigweed, Palmer (palmer pigweed; [1]): 75
- Plant response rating, Pigweed, Palmer (palmer pigweed; [2]): 75
- Plant response rating, Pigweed, Palmer (palmer pigweed; [3]): 85
- Plant response rating, Pigweed, Palmer (palmer pigweed; [4]): 20
- Plant response rating, Pigweed, Palmer (palmer pigweed; [5]): 40
- Plant response rating, Sandbur (sandbur; [1]): 0
- Plant response rating, Sandbur (sandbur; [2]): 0
- Plant response rating, Sandbur (sandbur; [3]): 10
- Plant response rating, Sandbur (sandbur; [4]): 0
- Plant response rating, Sandbur (sandbur; [5]): 0
- Plant response rating, Ryegrass, Italian (Italian ryegrass; [1]): 0
- Plant response rating, Ryegrass, Italian (Italian ryegrass; [2]): 0
- Plant response rating, Ryegrass, Italian (Italian ryegrass; [3]): 0
- Plant response rating, Ryegrass, Italian (Italian ryegrass; [4]): 0
- Plant response rating, Ryegrass, Italian (Italian ryegrass; [5]): 0
- Plant response rating, Field Bindweed (field bindweed; [1]): 50
- Plant response rating, Field Bindweed (field bindweed; [2]): 40
- Plant response rating, Field Bindweed (field bindweed; [3]): 50
- Plant response rating, Field Bindweed (field bindweed; [4]): 20
- Plant response rating, Field Bindweed (field bindweed; [5]): 40

SMILES: Clc1cnc(Oc2ccccc2-n2cc(Br)nn2)nc1 [Compound 223]
- Plant response rating, Poinsettia, Wild (wild poinsettia; [1]): 40
- Plant response rating, Poinsettia, Wild (wild poinsettia; [2]): 50
- Plant response rating, Poinsettia, Wild (wild poinsettia; [3]): 60
- Plant response rating, Poinsettia, Wild (wild poinsettia; [4]): 30
- Plant response rating, Poinsettia, Wild (wild poinsettia; [5]): 30
- Plant response rating, Pigweed, Palmer (palmer pigweed; [1]): 50
- Plant response rating, Pigweed, Palmer (palmer pigweed; [2]): 60
- Plant response rating, Pigweed, Palmer (palmer pigweed; [3]): 85
- Plant response rating, Pigweed, Palmer (palmer pigweed; [4]): 15
- Plant response rating, Pigweed, Palmer (palmer pigweed; [5]): 25
- Plant response rating, Sandbur (sandbur; [1]): 0
- Plant response rating, Sandbur (sandbur; [2]): 0
- Plant response rating, Sandbur (sandbur; [3]): 0
- Plant response rating, Sandbur (sandbur; [4]): 0
- Plant response rating, Sandbur (sandbur; [5]): 0
- Plant response rating, Ryegrass, Italian (Italian ryegrass; [1]): 0
- Plant response rating, Ryegrass, Italian (Italian ryegrass; [2]): 0
- Plant response rating, Ryegrass, Italian (Italian ryegrass; [3]): 0
- Plant response rating, Ryegrass, Italian (Italian ryegrass; [4]): 0
- Plant response rating, Ryegrass, Italian (Italian ryegrass; [5]): 0
- Plant response rating, Field Bindweed (field bindweed; [1]): 35
- Plant response rating, Field Bindweed (field bindweed; [2]): 50
- Plant response rating, Field Bindweed (field bindweed; [3]): 50
- Plant response rating, Field Bindweed (field bindweed; [4]): 20
- Plant response rating, Field Bindweed (field bindweed; [5]): 20

SMILES: N#Cc1cccc(Oc2ncc(Cl)cn2)c1-n1cc(OCC(F)(F)F)cn1 [Compound 274, 3-[(5-chloro-2-pyrimidinyl)oxy]-2-[4-(2,2,2-trifluoroethoxy)-1H-pyrazol-1-yl]benzonitrile]
- pest or weed control at 31 g/ha (wild poinsettia; Euphorbia heterophylla, post-emergence, Postemergence, 31 g ai/ha, scale 0 to 100, read-out: Plant response rating, Poinsettia, Wild): 70%
- pest or weed control at 62 g/ha (wild poinsettia; Euphorbia heterophylla, post-emergence, Postemergence, 62 g ai/ha, scale 0 to 100, read-out: Plant response rating, Poinsettia, Wild): 70%
- pest or weed control at 125 g/ha (wild poinsettia; Euphorbia heterophylla, post-emergence, Postemergence, 125 g ai/ha, scale 0 to 100, read-out: Plant response rating, Poinsettia, Wild): 70%
- pest or weed control at 8 g/ha (wild poinsettia; Euphorbia heterophylla, post-emergence, postemergence, 8 g ai/ha, scale 0 to 100, 0 no effect, 100 complete control, read-out: Plant response rating, Poinsettia, Wild): 50%
- pest or weed control at 16 g/ha (wild poinsettia; Euphorbia heterophylla, post-emergence, postemergence, 16 g ai/ha, scale 0 to 100, 0 no effect, 100 complete control, read-out: Plant response rating, Poinsettia, Wild): 65%
- pest or weed control at 31 g/ha (palmer pigweed; post-emergence, Postemergence, 31 g ai/ha, scale 0 to 100, read-out: Plant response rating, Pigweed, Palmer): 85%
- pest or weed control at 62 g/ha (palmer pigweed; post-emergence, Postemergence, 62 g ai/ha, scale 0 to 100, read-out: Plant response rating, Pigweed, Palmer): 95%
- pest or weed control at 125 g/ha (palmer pigweed; post-emergence, Postemergence, 125 g ai/ha, scale 0 to 100, read-out: Plant response rating, Pigweed, Palmer): 100%
- pest or weed control at 8 g/ha (palmer pigweed; post-emergence, postemergence, 8 g ai/ha, scale 0 to 100, 0 no effect, 100 complete control, read-out: Plant response rating, Pigweed, Palmer): 70%
- pest or weed control at 16 g/ha (palmer pigweed; post-emergence, postemergence, 16 g ai/ha, scale 0 to 100, 0 no effect, 100 complete control, read-out: Plant response rating, Pigweed, Palmer): 65%
- pest or weed control at 31 g/ha (sandbur; Cenchrus echinatus, post-emergence, Postemergence, 31 g ai/ha, scale 0 to 100, read-out: Plant response rating, Sandbur): 10%
- pest or weed control at 62 g/ha (sandbur; Cenchrus echinatus, post-emergence, Postemergence, 62 g ai/ha, scale 0 to 100, read-out: Plant response rating, Sandbur): 15%
- pest or weed control at 125 g/ha (sandbur; Cenchrus echinatus, post-emergence, Postemergence, 125 g ai/ha, scale 0 to 100, read-out: Plant response rating, Sandbur): 0%
- pest or weed control at 8 g/ha (sandbur; Cenchrus echinatus, post-emergence, postemergence, 8 g ai/ha, scale 0 to 100, 0 no effect, 100 complete control, read-out: Plant response rating, Sandbur): 0%
- pest or weed control at 16 g/ha (sandbur; Cenchrus echinatus, post-emergence, postemergence, 16 g ai/ha, scale 0 to 100, 0 no effect, 100 complete control, read-out: Plant response rating, Sandbur): 0%
- pest or weed control at 31 g/ha (Italian ryegrass; Lolium multiflorum, post-emergence, Postemergence, 31 g ai/ha, scale 0 to 100, read-out: Plant response rating, Ryegrass, Italian): 10%
- pest or weed control at 62 g/ha (Italian ryegrass; Lolium multiflorum, post-emergence, Postemergence, 62 g ai/ha, scale 0 to 100, read-out: Plant response rating, Ryegrass, Italian): 10%
- pest or weed control at 125 g/ha (Italian ryegrass; Lolium multiflorum, post-emergence, Postemergence, 125 g ai/ha, scale 0 to 100, read-out: Plant response rating, Ryegrass, Italian): 40%
- pest or weed control at 8 g/ha (Italian ryegrass; Lolium multiflorum, post-emergence, postemergence, 8 g ai/ha, scale 0 to 100, 0 no effect, 100 complete control, read-out: Plant response rating, Ryegrass, Italian): 0%
- pest or weed control at 16 g/ha (Italian ryegrass; Lolium multiflorum, post-emergence, postemergence, 16 g ai/ha, scale 0 to 100, 0 no effect, 100 complete control, read-out: Plant response rating, Ryegrass, Italian): 5%
- pest or weed control at 31 g/ha (field bindweed; Convolvulus arvensis, post-emergence, Postemergence, 31 g ai/ha, scale 0 to 100, read-out: Plant response rating, Field Bindweed): 50%
- pest or weed control at 62 g/ha (field bindweed; Convolvulus arvensis, post-emergence, Postemergence, 62 g ai/ha, scale 0 to 100, read-out: Plant response rating, Field Bindweed): 70%
- pest or weed control at 125 g/ha (field bindweed; Convolvulus arvensis, post-emergence, Postemergence, 125 g ai/ha, scale 0 to 100, read-out: Plant response rating, Field Bindweed): 75%
- pest or weed control at 8 g/ha (field bindweed; Convolvulus arvensis, post-emergence, postemergence, 8 g ai/ha, scale 0 to 100, 0 no effect, 100 complete control, read-out: Plant response rating, Field Bindweed): 60%
- pest or weed control at 16 g/ha (field bindweed; Convolvulus arvensis, post-emergence, postemergence, 16 g ai/ha, scale 0 to 100, 0 no effect, 100 complete control, read-out: Plant response rating, Field Bindweed): 50%
